According to US20020183518A1, “Modulators of proteins with phosphotyrosine recognition units” (ONTOGEN CORPORATION, priority 1995, published 2002):

Key:
PTP-1B = biological target: T1, PTP-1B (Homo sapiens, UniProt P18031); assay: In vitro PTPase inhibition assay (pNPP, colorimetric), PTP-1B; format: biochemical; conditions: Table 9; read-out: IC50 values against PTP1B
T1 construct: known to encode a 321 amino acid fragment containing the PTP-1B catalytic domain and having PTPase activity; made in house; host or cells: E. coli DH5α, plasmid pGEX-3X-PTP-1B
T1 sequence (P18031 3-277 limits assumed): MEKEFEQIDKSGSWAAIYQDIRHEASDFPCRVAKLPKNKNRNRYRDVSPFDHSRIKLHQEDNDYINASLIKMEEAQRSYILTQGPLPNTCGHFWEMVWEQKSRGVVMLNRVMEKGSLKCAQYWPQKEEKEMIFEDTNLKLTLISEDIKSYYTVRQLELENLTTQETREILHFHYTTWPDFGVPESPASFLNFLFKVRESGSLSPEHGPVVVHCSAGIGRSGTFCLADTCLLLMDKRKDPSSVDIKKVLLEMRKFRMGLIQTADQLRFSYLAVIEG
Description: PTP-1B enzymatic activity of samples was assayed in microtiter plates as follows. The protein concentration of the PTP-1B enzyme preparation was determined using the Bio-Rad Protein Assay kit (Bio-Rad, Hercules Calif.). […] Reactions were mixed gently and incubated at 37° C. for 60 minutes. Enzymatic cleavage of phosphate from pNPP (a tyrosine phosphate analog) is marked by a colorimetric change in this substrate. See, e.g., Imbert et al., Biochem J., 297:163-173 (1994); Ghosh and Miller, Biochem. Biophys. Res. […] Zanke et al., Eur. J. […] To determine the enzymatic activity, absorbance readings of the reactions were measured at 405 nm using a Molecular Devices Thermomax Plate Reader (Menlo Park Calif.). […] Purified phosphatase was added to the reaction mixtures to begin the reactions; the reactions were incubated at 37° C. for 60 min. […] (for PTP-1C and PTPα assays), stopped, and colorimetrically analyzed as described above. […] First, absorbance readings from the negative control reactions were treated as a baseline and subtracted from the absorbance readings of the experimental reactions. Then, for each reaction, a percent inhibition was calculated using the following formula: […] For each inhibitor compound tested, an IC50 concentration was calculated from a best-fit computer analysis of the calculated percent inhibition for the various dilutions of the compound. PTP-1B enzymatic activity of samples was assayed in microtiter plates as follows. The protein concentration of the PTP-1B enzyme preparation was determined using the Bio-Rad Protein Assay kit (Bio-Rad, Hercules Calif.). […] Reactions were mixed gently and incubated at 37° C. for 60 minutes. Enzymatic cleavage of phosphate from pNPP (a tyrosine phosphate analog) is marked by a colorimetric change in this substrate. See, e.g., Imbert et al., Biochem J., 297:163-173 (1994); Ghosh and Miller, Biochem. Biophys. Res. […] Zanke et al., Eur. […] To determine the enzymatic activity, absorbance readings of the reactions were measured at 405 nm using a Molecular Devices Thermomax Plate Reader (Menlo Park Calif.). […] Purified phosphatase was added to the reaction mixtures to begin the reactions; the reactions were incubated at 37° C. for 60 min. […] (for PTP-1C and PTPα assays), stopped, and calorimetrically analyzed as described above. […] First, absorbance readings from the negative control reactions were treated as a baseline and subtracted from the absorbance readings of the experimental reactions. Then, for each reaction, a percent inhibition was calculated using the following formula: […] For each inhibitor compound tested, an IC50 concentration was calculated from a best-fit computer analysis of the calculated percent inhibition for the various dilutions of the compound.

CD45 = biological target: T2, CD45 (Homo sapiens, UniProt P08575); assay: In vitro PTPase inhibition assay (pNPP, colorimetric), CD45; format: biochemical; conditions: Table 9; read-out: IC50 values against CD45
T2 construct: The PCR reaction product (2127 bp) was digested with Sma I (New England Biolabs, Beverly Mass.) to yield a 2110 bp product; made in house; host or cells: E. coli DH5α, plasmid pET24C-CD45
T2 sequence (P08575 599-1306 limits assumed): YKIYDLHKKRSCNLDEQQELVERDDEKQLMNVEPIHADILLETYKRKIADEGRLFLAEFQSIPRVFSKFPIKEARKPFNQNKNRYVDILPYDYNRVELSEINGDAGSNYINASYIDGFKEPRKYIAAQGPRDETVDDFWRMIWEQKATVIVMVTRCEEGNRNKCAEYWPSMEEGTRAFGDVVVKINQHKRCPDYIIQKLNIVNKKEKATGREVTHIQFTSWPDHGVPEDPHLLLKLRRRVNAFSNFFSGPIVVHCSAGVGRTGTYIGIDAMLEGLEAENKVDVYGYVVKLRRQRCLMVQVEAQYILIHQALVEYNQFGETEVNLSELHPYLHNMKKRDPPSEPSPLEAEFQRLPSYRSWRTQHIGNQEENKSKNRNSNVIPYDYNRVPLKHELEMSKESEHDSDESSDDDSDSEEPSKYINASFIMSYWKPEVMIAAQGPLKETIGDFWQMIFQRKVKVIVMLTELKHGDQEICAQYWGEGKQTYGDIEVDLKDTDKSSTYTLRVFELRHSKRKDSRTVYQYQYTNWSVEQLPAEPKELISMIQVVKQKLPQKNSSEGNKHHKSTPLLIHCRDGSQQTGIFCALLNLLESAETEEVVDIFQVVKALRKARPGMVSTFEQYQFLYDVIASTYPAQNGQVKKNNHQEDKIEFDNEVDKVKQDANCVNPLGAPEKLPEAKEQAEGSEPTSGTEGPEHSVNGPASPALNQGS
Description: CD45 enzymatic activity of samples was assayed in microtiter plates as follows. […] Louis Mo.), and 80 ul of activity assay buffer (100 mM sodium acetate, pH 6.0, 1 mM EDTA, 0.1% Triton X-100, 15 mM bME). Reactions were mixed gently and incubated at 37° C. for 60 minutes. […] To determine the enzymatic activity, absorbance readings of the reactions were measured at 405 nm using a Molecular Devices Thermomax Plate Reader (Menlo Park Calif.). […] Purified phosphatase was added to the reaction mixtures to begin the reactions; the reactions were incubated at 37° C. for 60 min. […] (for PTP-1C and PTPα assays), stopped, and colorimetrically analyzed as described above. […] First, absorbance readings from the negative control reactions were treated as a baseline and subtracted from the absorbance readings of the experimental reactions. Then, for each reaction, a percent inhibition was calculated using the following formula: […] For each inhibitor compound tested, an IC50 concentration was calculated from a best-fit computer analysis of the calculated percent inhibition for the various dilutions of the compound. CD45 enzymatic activity of samples was assayed in microtiter plates as follows. […] Louis Mo.), and 80 ul of activity assay buffer (100 mM sodium acetate, pH 6.0, 1 mM EDTA, 0. 1% Triton X-100, 15 mM bME). Reactions were mixed gently and incubated at 37° C. for 60 minutes. […] To determine the enzymatic activity, absorbance readings of the reactions were measured at 405 nm using a Molecular Devices Thermomax Plate Reader (Menlo Park Calif.). […] Purified phosphatase was added to the reaction mixtures to begin the reactions; the reactions were incubated at 37° C. for 60 min. […] (for PTP-1C and PTPα assays), stopped, and calorimetrically analyzed as described above. […] First, absorbance readings from the negative control reactions were treated as a baseline and subtracted from the absorbance readings of the experimental reactions. Then, for each reaction, a percent inhibition was calculated using the following formula: […] For each inhibitor compound tested, an IC50 concentration was calculated from a best-fit computer analysis of the calculated percent inhibition for the various dilutions of the compound.

Compound	IC50 (PTP-1B) [µM]	IC50 (CD45) [µM]
O=C(O)/C=C/c1ccc(-c2nc(-c3ccc(C(=O)O)cc3)[nH]c2-c2ccc(/C=C/C(=O)O)cc2)cc1 [Compound 54]	0.072	0.73
O=C(O)/C=C/c1ccc(-c2nc(-c3cccc(F)c3)[nH]c2-c2ccc(/C=C/C(=O)O)cc2)cc1 [Compound 61]	0.97	0.955
O=C(O)/C=C/c1ccc(-c2nc(-c3ccc4ccccc4n3)[nH]c2-c2ccc(/C=C/C(=O)O)cc2)cc1 [Compound 63]	1.7	2.4
COC(=O)c1ccc2cc(-c3nc(-c4ccc(/C=C/C(=O)O)cc4)c(-c4ccc(/C=C/C(=O)O)cc4)[nH]3)[nH]c2c1 [Compound 64]	3	6.4
O=C(O)/C=C/c1ccc(-c2nc(-c3cc(F)cc(F)c3)[nH]c2-c2ccc(/C=C/C(=O)O)cc2)cc1 [Compound 65]	1.3	1.4
O=C(O)/C=C/c1ccc(-c2nc(-c3ccc(F)c(F)c3)[nH]c2-c2ccc(/C=C/C(=O)O)cc2)cc1 [Compound 66]	1.7	2.5
O=C(O)/C=C/c1ccc(-c2nc(-c3cccc(F)c3F)[nH]c2-c2ccc(/C=C/C(=O)O)cc2)cc1 [Compound 67]	1	1.25
O=C(O)/C=C/c1ccc(-c2nc(/C=C/c3ccccc3)[nH]c2-c2ccc(/C=C/C(=O)O)cc2)cc1 [Compound 79]	4.8	8.2
O=C(O)/C=C/c1ccc(-c2nc(-c3ccc4ccc5cccc6ccc3c4c56)[nH]c2-c2ccc(/C=C/C(=O)O)cc2)cc1 [Compound 80]	10	20
O=C(O)/C=C/c1ccc(-c2nc(-c3cc4ccccc4c4ccccc34)[nH]c2-c2ccc(/C=C/C(=O)O)cc2)cc1 [Compound 81]	26	19
O=C(O)/C=C/c1ccc(-c2nc(-c3cc(Cl)cc(Cl)c3Cl)[nH]c2-c2ccc(/C=C/C(=O)O)cc2)cc1 [Compound 82]	11.9	12.8
COc1ccc(-c2nc(-c3ccc(/C=C/C(=O)O)cc3)c(-c3ccc(/C=C/C(=O)O)cc3)[nH]2)cc1F [Compound 83]	1.3	1.5

Results, then the compound that gave them:

IC50 (PTP-1B) [µM]	IC50 (CD45) [µM]	Compound
0.37	3.9	O=C(O)/C=C/c1ccc(C(=O)C(=O)c2ccc(/C=C/C(=O)O)cc2)cc1 [Compound 9]
0.1	0.56	O=C(O)/C=C/c1ccc(-c2nc[nH]c2-c2ccc(/C=C/C(=O)O)cc2)cc1 [Compound 55]
0.25	1	O=C(O)/C=C/c1ccc(-c2nc(-c3ccccc3[N+](=O)[O-])[nH]c2-c2ccc(/C=C/C(=O)O)cc2)cc1 [Compound 57]
0.25	0.97	COc1ccc(-c2nc(-c3ccc(/C=C/C(=O)O)cc3)c(-c3ccc(/C=C/C(=O)O)cc3)[nH]2)cc1 [Compound 58]
0.25	0.35	COc1cccc(-c2nc(-c3ccc(/C=C/C(=O)O)cc3)c(-c3ccc(/C=C/C(=O)O)cc3)[nH]2)c1[N+](=O)[O-] [Compound 59]
0.29	1	O=C(O)/C=C/c1ccc(-c2nc(-c3ccco3)[nH]c2-c2ccc(/C=C/C(=O)O)cc2)cc1 [Compound 60]
0.3	0.865	CCN(CC)c1ccc(-c2nc(-c3ccc(/C=C/C(=O)O)cc3)c(-c3ccc(/C=C/C(=O)O)cc3)[nH]2)cc1 [Compound 68]
0.41	1.9	COc1cccc(-c2nc(-c3ccc(/C=C/C(=O)O)cc3)c(-c3ccc(/C=C/C(=O)O)cc3)[nH]2)c1O [Compound 69]
0.42	1.9	O=C(O)/C=C/c1ccc(-c2nc(-c3cccs3)[nH]c2-c2ccc(/C=C/C(=O)O)cc2)cc1 [Compound 70]
0.43	0.53	O=C(O)/C=C/c1ccc(-c2nc(-c3ccc4c(c3)OCCO4)[nH]c2-c2ccc(/C=C/C(=O)O)cc2)cc1 [Compound 71]
0.52	5.5	COc1cc(OC)c(OC)c(-c2nc(-c3ccc(/C=C/C(=O)O)cc3)c(-c3ccc(/C=C/C(=O)O)cc3)[nH]2)c1 [Compound 72]
0.62	2.8	N#Cc1ccc(-c2nc(-c3ccc(/C=C/C(=O)O)cc3)c(-c3ccc(/C=C/C(=O)O)cc3)[nH]2)cc1 [Compound 73]
0.64	4.2	Cn1cc(-c2nc(-c3ccc(/C=C/C(=O)O)cc3)c(-c3ccc(/C=C/C(=O)O)cc3)[nH]2)c2ccccc21 [Compound 74]
0.68	3.4	O=C(O)/C=C/c1ccc(-c2nc(-c3ccccc3)[nH]c2-c2ccc(/C=C/C(=O)O)cc2)cc1 [Compound 75]
0.68	0.93	O=C(O)/C=C/c1ccc(-c2nc(-c3cc(F)ccc3F)[nH]c2-c2ccc(/C=C/C(=O)O)cc2)cc1 [Compound 76]
0.78	7.5	CCCCCc1nc(-c2ccc(/C=C/C(=O)O)cc2)c(-c2ccc(/C=C/C(=O)O)cc2)[nH]1 [Compound 77]
0.79	1.15	O=C(O)/C=C/c1ccc(-c2nc(-c3ccccc3F)[nH]c2-c2ccc(/C=C/C(=O)O)cc2)cc1 [Compound 78]
